How the values were obtained:
[1] = biological target: human recombinant FGFR1 (Homo sapiens, UniProt P11362); experiment: FGFR family enzymatic activity assay (Caliper-based kinase assay), FGFR1; type: biochemical; conditions: FGFR1 0.5 nM, ATP 100 μM, peptide substrate 1 μM, room temperature 3 h
Description: (§1) A Caliper-based kinase assay (Caliper Life Sciences, Hopkinton, Mass.) was used to measure inhibition of FGFR family (FGFR1, FGFR2, FGFR3, FGFR4) kinase activity of a compound of Formula (I′) or (I). […] This value is presented as the IC50.

[2] = system: SNU-16 cells; experiment: Inhibition of FGFR2-dependent cell growth (Cell-titer Glo); type: cell-based; conditions: Homo sapiens, SNU16 cells, 72 hrs incubation, cell viability by Cell-titer Glo
Procedure: The cell-based effects of FGFR inhibitors were determined by measuring inhibition of FGFR-dependent cell line growth. […] Percent inhibition of cell growth was calculated as a percentage of untreated cell viability. The percent inhibition was plotted as a function of log compound concentration. The IC50 was then calculated for each compound using Prism software from GraphPad.

[3] = biological target: human recombinant FGFR3 (Homo sapiens, UniProt P22607); experiment: FGFR family enzymatic activity assay (Caliper-based kinase assay), FGFR3; type: biochemical; conditions: FGFR3 0.9 nM, ATP 120 μM, peptide substrate 1 μM, room temperature 3 h
Sequence of human recombinant FGFR3 (P22607 23-806): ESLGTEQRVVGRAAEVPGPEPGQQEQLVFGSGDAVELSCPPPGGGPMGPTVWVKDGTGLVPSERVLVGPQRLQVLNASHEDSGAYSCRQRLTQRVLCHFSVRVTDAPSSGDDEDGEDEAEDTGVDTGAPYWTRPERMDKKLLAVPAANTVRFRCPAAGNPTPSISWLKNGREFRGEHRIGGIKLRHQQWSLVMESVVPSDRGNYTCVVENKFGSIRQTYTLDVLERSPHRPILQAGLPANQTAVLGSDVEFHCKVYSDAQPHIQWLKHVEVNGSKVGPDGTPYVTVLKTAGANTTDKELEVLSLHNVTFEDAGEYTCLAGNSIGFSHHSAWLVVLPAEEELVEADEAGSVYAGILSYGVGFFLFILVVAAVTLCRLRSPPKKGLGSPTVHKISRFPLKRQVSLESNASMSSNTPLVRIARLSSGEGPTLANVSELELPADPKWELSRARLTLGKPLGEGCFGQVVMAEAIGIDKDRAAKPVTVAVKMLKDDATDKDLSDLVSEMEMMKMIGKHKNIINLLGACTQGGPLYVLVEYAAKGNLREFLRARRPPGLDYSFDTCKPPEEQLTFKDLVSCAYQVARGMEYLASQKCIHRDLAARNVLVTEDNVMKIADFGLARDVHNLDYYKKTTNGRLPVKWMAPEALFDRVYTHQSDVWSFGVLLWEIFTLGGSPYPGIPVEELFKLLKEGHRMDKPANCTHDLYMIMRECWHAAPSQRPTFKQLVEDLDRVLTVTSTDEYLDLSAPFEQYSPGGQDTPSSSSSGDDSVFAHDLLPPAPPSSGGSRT
Description: as §1

Sequence of human recombinant FGFR1 (P11362 22-822): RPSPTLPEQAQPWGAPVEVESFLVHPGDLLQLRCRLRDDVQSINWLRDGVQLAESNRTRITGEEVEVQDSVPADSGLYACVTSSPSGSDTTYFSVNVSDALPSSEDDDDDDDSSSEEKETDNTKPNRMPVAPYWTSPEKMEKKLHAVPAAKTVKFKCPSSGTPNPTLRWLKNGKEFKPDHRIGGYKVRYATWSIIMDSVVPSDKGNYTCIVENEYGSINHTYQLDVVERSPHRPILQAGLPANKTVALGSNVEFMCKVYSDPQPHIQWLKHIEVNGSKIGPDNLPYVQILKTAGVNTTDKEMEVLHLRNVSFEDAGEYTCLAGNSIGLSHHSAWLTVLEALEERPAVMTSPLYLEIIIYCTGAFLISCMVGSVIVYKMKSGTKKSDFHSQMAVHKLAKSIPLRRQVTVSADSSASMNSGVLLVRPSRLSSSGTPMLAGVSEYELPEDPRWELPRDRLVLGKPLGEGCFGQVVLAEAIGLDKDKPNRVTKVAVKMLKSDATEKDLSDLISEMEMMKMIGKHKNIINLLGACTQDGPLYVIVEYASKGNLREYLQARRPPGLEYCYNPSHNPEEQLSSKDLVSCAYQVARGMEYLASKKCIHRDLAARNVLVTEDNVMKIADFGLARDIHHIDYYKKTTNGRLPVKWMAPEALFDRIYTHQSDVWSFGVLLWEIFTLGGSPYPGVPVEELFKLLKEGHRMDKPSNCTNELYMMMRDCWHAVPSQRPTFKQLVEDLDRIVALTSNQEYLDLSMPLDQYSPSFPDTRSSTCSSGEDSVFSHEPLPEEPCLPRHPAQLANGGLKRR

| Compound | IC50 [1] [nM] | IC50 [2] [nM] | IC50 [3] [nM] |
| --- | --- | --- | --- |
| C=CC(=O)Nc1cccc(CCn2c(=O)c(-c3cc(OC)cc(OC)c3)cc3cnc(NC)nc32)c1 [Example 8, N-(3-(2-(6-(3,5-dimethoxyphenyl)-2-(methylamino)-7-oxopyrido[2,3-d]pyrimidin-8(7H)-yl)ethyl)phenyl)acrylamide] | 31.2 | 83 | 19 |
| C=CC(=O)Nc1cccc(CCn2c(=O)c(-c3cc(OC)cc(OC)c3F)cc3cnc(NCCN4CCOCC4)nc32)c1 [Example 52, N-(3-(2-(6-(2-fluoro-3,5-dimethoxyphenyl)-2-(2-morpholin-4-ylethyllamino)-7-oxopyrido[2,3-d]pyrimidin-8(7H)-yl)ethyl)phenyl)acrylamide] | 5.4 | 15 |  |
| C=CC(=O)Nc1ccc(CCn2c(=O)c(-c3cc(OC)cc(OC)c3Cl)cc3cnc(NCC(C)(C)O)nc32)nc1 [Example 109, N-(6-(2-(6-(2-chloro-3,5-dimethoxyphenyl)-2-((2-hydroxy-2-methylpropyl)amino)-7-oxopyrido[2,3-d]pyrimidin-8(7H)-yl)ethyl)pyridin-3-yl)acrylamide] | 1.6 | 3.5 |  |
| C=CC(=O)Nc1ccc(CCn2c(=O)c(-c3c(Cl)c(OC)cc(OC)c3Cl)cc3cnc(NC(CO)CO)nc32)nc1 [Example 87, N-(6-(2-(6-(2,6-dichloro-3,5-dimethoxyphenyl)-2-((1,3-dihydroxypropan-2-yl)amino)-7-oxopyrido[2,3-d]pyrimidin-8(7H)-yl)ethyl)pyridin-3-yl)acrylamide] | 1.2 | 169 |  |
| C#CCNc1ncc2cc(-c3c(Cl)c(OC)cc(OC)c3Cl)c(=O)n(CCc3ccc(NC(=O)C=C)cn3)c2n1 [Example 101, N-(6-(2-(6-(2,6-dichloro-3,5-dimethoxyphenyl)-7-oxo-2-(prop-2-yn-1-ylamino)-pyrido[2,3-d]pyrimidin-8(7H)-yl)ethyl)pyridin-3-yl)acrylamide] | 0.3 | 1.6 |  |
| C=CC(=O)Nc1ccc(CCn2c(=O)c(-c3c(Cl)c(OC)cc(OC)c3Cl)cc3cnc(NC(C)(C)CO)nc32)nc1 [Example 94, N-(6-(2-(6-(2,6-dichloro-3,5-dimethoxyphenyl)-2-((1-hydroxy-2-methylpropan-2-yl)amino)-7-oxopyrido[2,3-d]pyrimidin-8(7H)-yl)ethyl)pyridin-3-yl)acrylamide] | 2.1 | 7.4 |  |
| C=CC(=O)Nc1ccc(CCn2c(=O)c(-c3c(Cl)c(OC)cc(OC)c3Cl)cc3cnc(NN4CCN(C)CC4)nc32)cc1 [Example 105, N-(4-(2-(6-(2,6-dichloro-3,5-dimethoxyphenyl)-2-((4-methylpiperazin-1-yl)amino)-7-oxopyrido[2,3-d]pyrimidin-8(7H)-yl)ethyl)phenyl)acrylamide] | 1.2 | 7.8 |  |
| C=CC(=O)Nc1ccc(CCn2c(=O)c(-c3cc(OC)cc(OC)c3Cl)cc3cnc(NC(C)(C)CN4CCOCC4)nc32)cc1 [Example 67, N-(4-(2-(6-(2-chloro-3,5-dimethoxyphenyl)-2-((2-methyl-1-morpholinopropan-2-yl)amino)-7-oxopyrido[2,3-d]pyrimidin-8(7H)-yl)ethyl)phenyl)acrylamide] | 2.3 | 9.7 |  |
| C=CC(=O)Nc1ccc(CCn2c(=O)c(-c3cc(OC)cc(OC)c3Cl)cc3cnc(NCCO)nc32)nc1 [Example 104, N-(6-(2-(6-(2-chloro-3,5-dimethoxyphenyl)-2-((2-hydroxyethyl)amino)-7-oxopyrido[2,3-d]pyrimidin-8(7H)-yl)ethyl)pyridin-3-yl)acrylamide] | 0.8 | 13.4 |  |
| C=CC(=O)Nc1ccc(CCn2c(=O)c(-c3cc(OC)cc(OC)c3Cl)cc3cnc(NCC(C)(C)O)nc32)cc1 [Example 24, N-(4-(2-(6-(2-chloro-3,5-dimethoxyphenyl)-2-((2-hydroxy-2-methylpropyl)amino)-7-oxopyrido[2,3-d]pyrimidin-8(7H)-yl)ethyl)phenyl)acrylamide] | 1.7 | 1.8 |  |
| C=CC(=O)Nc1ccc(CCn2c(=O)c(-c3cc(OC)cc(OC)c3Cl)cc3cnc(NCCN4CCOCC4)nc32)cn1 [Example 31, N-(5-(2-(6-(2-chloro-3,5-dimethoxyphenyl)-2-(2-morpholinoethylamino)-7-oxopyrido[2,3-d]pyrimidin-8(7H)-yl)ethyl)pyridin-2-yl)acrylamide] | 1.4 | 3.6 |  |
| CNc1ncc2cc(-c3cc(OC)cc(OC)c3Cl)c(=O)n(CCc3cccc(NC(=O)/C=C/CN(C)C)c3)c2n1 [Example 23, (E)-N-(3-(2-(6-(2-chloro-3,5-dimethoxyphenyl)-2-(methylamino)-7-oxopyrido[2,3-d]pyrimidin-8(7H)-yl)ethyl)phenyl)-4-(dimethylamino)but-2-enamide] | 1.2 | 1 |  |

Continued by falling IC50 [1], values first:

| IC50 [1] [nM] | IC50 [2] [nM] | IC50 [3] [nM] | Compound |
| --- | --- | --- | --- |
| 4 | 48 |  | CNc1ncc2cc(-c3cc(OC)cc(OC)c3Cl)c(=O)n(CCc3ccc(NS(=O)(=O)C=C(C)C)cc3)c2n1 [Example 45, N-(4-(2-(6-(2-chloro-3,5-dimethoxyphenyl)-2-(methylamino)-7-oxopyrido[2,3-d]pyrimidin-8(7H)-yl)ethyl)phenyl)-2-methylprop-1-ene-1-sulfonamide] |
| 3 | 82.4 |  | C=CC(=O)Nc1cnc(CCn2c(=O)c(-c3cc(OC)cc(OC)c3Cl)cc3cnc(NCCN4CCOCC4)nc32)cn1 [Example 47, N-(5-(2-(6-(2-chloro-3,5-dimethoxyphenyl)-2-((2-morpholinoethyl)amino)-7-oxopyrido[2,3-d]pyrimidin-8(7H)-yl)ethyl)pyrazin-2-yl)acrylamide] |
| 1 | 3.9 |  | C=CC(=O)Nc1cccc(Cn2c(=O)c(-c3cc(OC)cc(OC)c3Cl)cc3cnc(NCCN4CCOCC4)nc32)c1 [Example 102, N-(3-((6-(2-chloro-3,5-dimethoxyphenyl)-2-((2-morpholinoethyl)amino)-7-oxopyrido[2,3-d]pyrimidin-8(7H)-yl)methyl)phenyl)acrylamide] |
| 0.6 | 11.4 |  | C=CC(=O)Nc1ccc(CCn2c(=O)c(-c3c(Cl)c(OC)cc(OC)c3Cl)cc3cnc(NCCO)nc32)nc1 [Example 86, N-(6-(2-(6-(2,6-dichloro-3,5-dimethoxyphenyl)-2-((2-hydroxyethyl)amino)-7-oxopyrido[2,3-d]pyrimidin-8(7H)-yl)ethyl)pyridin-3-yl)acrylamide] |
| 0.3 | 4.1 |  | C=CC(=O)Nc1ccc(CCn2c(=O)c(-c3c(Cl)c(OC)cc(OC)c3Cl)cc3cnc(NC4CCOCC4)nc32)nc1 [Example 81, N-(6-(2-(6-(2,6-dichloro-3,5-dimethoxyphenyl)-7-oxo-2-((tetrahydro-2H-pyran-4-yl)amino)-pyrido[2,3-d]pyrimidin-8(7H)-yl)ethyl)pyridin-3-yl)acrylamide] |
| 0.2 | 3.4 |  | C=CC(=O)Nc1ccc(CCn2c(=O)c(-c3c(Cl)c(OC)cc(OC)c3Cl)cc3cnc(NCC)nc32)nc1 [Example 79, N-(6-(2-(6-(2,6-dichloro-3,5-dimethoxyphenyl)-2-(ethylamino)-7-oxopyrido[2,3-d]pyrimidin-8(7H)-yl)ethyl)pyridin-3-yl)acrylamide] |
